Patent US11091471B2, “Isoxazolyl ether derivatives as GABAA α5 PAM” (Hoffmann-La Roche Inc., priority 2016, dated 2021)
pKi: −log10 of the molar value.

What was measured:
h-GABA-A α5β3γ2 [1] = target: T1, h-GABA-A α5β3γ2 (Homo sapiens (Human), UniProt P18507+P31644); assay: [3H]flumazenil competition binding assay, membranes of HEK293 cells expressing human GABAA receptors; settings: Table 1, displacement of [3H]-Flumazenil 0.5 nM, mean of two determinations
Experimental: The affinity of compounds at GABAA receptor subtypes was measured by competition for [3H]flumazenil (85 Ci/mmol; Roche) binding to HEK293 cells expressing rat (stably transfected) or human (transiently transfected) receptors of composition α1β3γ2, α2β3γ2, α3β3γ2 and α5β3γ2.
Cell pellets were suspended in Krebs-tris buffer (4.8 mM KCl, 1.2 mM CaCl2, 1.2 mM MgCl2, 120 mM NaCl, 15 mM Tris; pH 7.5; binding assay buffer), homogenized by polytron for ca. 20 sec on ice and centrifuged for 60 min at 4° C. (50000 g; Sorvall, rotor: SM24=20000 rpm). The cell pellets were resuspended in Krebs-tris buffer and homogenized by polytron for ca. 15 sec on ice. Protein was measured (Bradford method, Bio-Rad) and aliquots of 1 mL were prepared and stored at 80° C.
Assays were incubated to equilibrium for 1 hour at 4° C. and harvested onto GF/C uni-filters (Packard) by filtration using a Packard harvester and washing with ice-cold wash buffer (50 mM Tris; pH 7.5). After drying, filter-retained radioactivity was detected by liquid scintillation counting. Ki values were calculated using Excel-Fit (Microsoft) and are the means of two determinations.

h-GABA-A α5β3γ2 [2] = target: T1, h-GABA-A α5β3γ2; assay: Two-electrode voltage clamp electrophysiology in Xenopus oocytes expressing GABAA receptors, modulation of GABA EC20 current; format: cell-based; settings: Table 1; GABA at EC20, test compound at approx. 30 fold its Ki, Xenopus oocytes
Experimental: Xenopus laevis oocytes at maturation stages V-VI were used for the expression of cloned mRNA encoding GABAA receptor subunits. Oocytes ready for RNA micro-injection were bought from Ecocyte, Castrop-Rauxel, Germany and stored in modified Barth's medium (composition in mM: NaCl 88, KCl 1, NaHCO3 2.4, HEPES 10, MgSO4 0.82, CaNO3 0.33, CaCl2 0.33, pH=7.5) at 20° C. until the experiment.
Oocytes were plated in 96-well plates to be used in an automated instrument (Robo-ocyte, MultiChannelSystems, Reutlingen, Germany) for microinjection and electrophysiological recordings. Approximately 50 nl of an aqueous solution containing the RNA transcripts for the subunits of the desired GABAA receptor was injected into each oocyte.
Electrophysiological experiments were performed on days 3 to 5 after the micro-injection of mRNA. During the experiment the oocytes were constantly superfused by a solution containing (in mM) NaCl 90, KCl 1, HEPES 5, MgCl2 1, CaCl2 1 (pH 7.4). Oocytes were impaled by two glass microelectrodes (resistance: 0.4 MΩ) which were filled with a solution containing KCl 1M+K-acetate 1.5 M and voltage-clamped to −80 mV. The recordings were performed at room temperature using the Roboocyte two-electrode voltage clamp system (Multichannelsystem). After an initial equilibration period of 1.5 min GABA was added for 1.5 min at a concentration evoking approximately 20% of a maximal current response (EC20). After another rest interval of 2.5 min GABA was again added evoking a response of similar amplitude and shape. […] Current traces were recorded at a digitization rate of 10 Hz during and shortly before and after the GABA application.
Each compound and concentration was tested on at least 3 oocytes.
For the analysis, the digitized current traces of the first and second GABA response were superimposed and, if necessary, rescaled to equal maximal amplitudes. The ratio between the two responses during the time interval of test compound application was calculated point by point. The extremum of the resulting “ratio trace” was taken as the efficacy (“Fold increase”) of the compound expressed as “% modulation of GABA EC20” (100*(Fold increase−1)).

| SMILES | pKi (h-GABA-A α5β3γ2 [1]) | Fold increase h-GABA-A α5β3γ2 oocyte (h-GABA-A α5β3γ2 [2]) |
| --- | --- | --- |
| Cc1ccc(-c2noc(C)c2COc2ccc(C(=O)N[C@H]3CCCC[C@H]3O)nn2)cn1 [Example 23, N-((1S,2R)-2-hydroxycyclohexyl)-6-((5-methyl-3-(6-methylpyridin-3-yl)isoxazol-4-yl)methoxy)pyridazine-3-carboxamide] | 7.69 | 1.89 |
| Cc1ccc(-c2noc(C)c2COc2ccc(C(=O)N3C[C@@H]4C[C@H]3CO4)nn2)cn1 [Example 151, (1S,4S)-2-oxa-5-azabicyclo[2.2.1]heptan-5-yl(6-((5-methyl-3-(6-methylpyridin-3-yl)isoxazol-4-yl)methoxy)pyridazin-3-yl)methanone] | 7.34 | 1.68 |
| Cc1ccc(-c2nocc2COc2ccc(C(=O)NC3CCOCC3)cn2)cn1 [Example 44, 6-((3-(6-methyl-3-pyridyl)isoxazol-4-yl)methoxy)-N-tetrahydropyran-4-yl-pyridine-3-carboxamide] | 7.12 | 1.54 |

Second part, the compound after the results:

| pKi (h-GABA-A α5β3γ2 [1]) | Fold increase h-GABA-A α5β3γ2 oocyte (h-GABA-A α5β3γ2 [2]) | SMILES |
| --- | --- | --- |
| 7.37 | 1.82 | O=C(N[C@H]1CCOC1)c1ccc(OCc2c(-c3ccc(Cl)nc3)noc2C2CC2)nn1 [Example 179, (S)-6-((3-(6-chloropyridin-3-yl)-5-cyclopropylisoxazol-4-yl)methoxy)-N-(tetrahydrofuran-3-yl)pyridazine-3-carboxamide] |
| 8.12 | 1.7 | CO[C@@H]1CC[C@@H](NC(=O)c2ccc(OCc3c(-c4ccc(C)nc4)noc3C)nn2)C1 (racemic) [Example 166, trans-N-((1RS,3RS)-3-methoxycyclopentyl)-6-((5-methyl-3-(6-methylpyridin-3-yl)isoxazol-4-yl)methoxy)pyridazine-3-carboxamide] |
